In patent US9580444B2, “Polycyclic pyrazolinone derivative and herbicide comprising same as effective component thereof” (priority 2013, dated 2017):

Tests used:
Type in all cases: in vivo
[1] = test system: Echinochloa oryzicola (barnyard grass); assay: Test Example-1: herbicidal effect by a treatment before weeds are generated under submerged conditions; details: 500 g a.i/ha, pre-emergence treatment, about 15 days after treatment, score 0-5
Procedure, shortened: (§1)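 Paddy soil in cups was puddled, seeded with the weeds and kept flooded; compound as wettable powder or emulsifiable concentrate was diluted and applied into the water on the seeding day at a set dosage. Effect was scored about 15 days later on a 0–5 scale.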

[2] = test system: Monochoria vaginalis (monochoria); assay: as above; details: 500 g a.i/ha, pre-emergence treatment, about 15 days after treatment, score 0-5
Procedure, shortened: as §1

[3] = test system: Scirpus juncoides (bulrush); assay: as above; details: 500 g a.i/ha, pre-emergence treatment, about 15 days after treatment, score 0-5
Procedure, shortened: as §1

[4] = test system: Cyperus difformis (smallflower umbrella plant); assay: as above; details: 500 g a.i/ha, pre-emergence treatment, about 15 days after treatment, score 0-5
Procedure, shortened: as §1

[5] = test system: Eleocharis acicularis (needle spikerush); assay: as above; details: 500 g a.i/ha, pre-emergence treatment, about 15 days after treatment, score 0-5
Procedure, shortened: as §1

[6] = test system: other annual broad leaf weeds (Lindernia procumbens, Rotala indica, Elatine triandra); assay: as above; details: 500 g a.i/ha, pre-emergence treatment, about 15 days after treatment, score 0-5
Procedure, shortened: as §1

[7] = test system: Chenopodium album (common lambsquarters); assay: Test Example-2: herbicidal effect by a soil treatment before weeds are generated under upland field conditions; details: application amount 500 g a.i/ha, soil spray treatment before weeds are generated, about 21 days after the treatment, score 0 to 5
Description: (§2) Using the formulation prepared according to the methods described above, the herbicidal effect of the bicyclic pyrazolinone derivative of the invention according to the methods shown in Test Examples below was examined. The herbicidal effect with respect to the test weeds or the phytotoxicity with respect to the test crops was examined according to the following criteria, and evaluated in six stage scores of 0 to 5. A vat having an area of 81 cm^2 and a depth of 3.5 cm was filled with upland soil, then, seeds of Amaranthus viridis (green amaranthus), Chenopodium album (common lambsquarters), and corn were seeded thereto, and the seeds were covered with soil of about 0.5 cm. Next day, a wettable powder or an emulsifiable concentrate of the compound of the present invention prepared according to Formulation Example was diluted, and a spray treatment was uniformly performed on the covered oil so as to be a predetermined dosage. The herbicidal effect with respect to the test weeds and the phytotoxicity with respect to corn about 21 days after the treatment were evaluated according to the evaluation criteria in six stages of 0 to 5 described above.

[8] = test system: Amaranthus viridis (green amaranthus); assay: as above; details: application amount 500 g a.i/ha, soil spray treatment before weeds are generated, about 21 days after the treatment, score 0 to 5
Description: as §2

corn [9] = assay: Test Example-2: phytotoxicity by a soil treatment before weeds are generated under upland field conditions; details: application amount 500 g a.i/ha, soil spray treatment before weeds are generated, about 21 days after the treatment, score 0 to 5
Description: as §2

corn [10] = assay: Test Example-4: phytotoxicity by a foliage treatment after weeds are generated under upland field conditions; details: 500 g a.i/ha, foliage treatment after emergence, about 14 days after treatment, score 0-5
Procedure, shortened: (§3)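 Weed seeds were sown in upland soil, covered with about 0.5 cm soil and grown 14 days with watering. Diluted wettable powder or emulsifiable concentrate was then sprayed uniformly on foliage at a set dosage in 4000 L water/ha. Weed control and corn injury were scored 0–5 about 14 days later.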

[11] = test system: Chenopodium album (common lambsquarters); assay: Test Example-4: herbicidal effect by a foliage treatment after weeds are generated under upland field conditions; details: 500 g a.i/ha, foliage treatment after emergence, about 14 days after treatment, score 0-5
Procedure, shortened: as §3

[12] = test system: Amaranthus viridis (green amaranthus); assay: as above; details: 500 g a.i/ha, foliage treatment after emergence, about 14 days after treatment, score 0-5
Procedure, shortened: as §3

[13] = test system: Abutilon theophrasti (velvetleaf); assay: as above; details: 500 g a.i/ha, foliage treatment after emergence, about 14 days after treatment, score 0-5
Procedure, shortened: as §3

| SMILES | Herbicidal effect Echinochloa oryzicola [1] | Herbicidal effect Monochoria vaginalis [2] | Herbicidal effect Scirpus juncoides [3] | Herbicidal effect Cyperus difformis [4] | Herbicidal effect Eleocharis acicularis [5] | Herbicidal effect Broadleaf weed [6] | Herbicidal effect Chenopodium album [7] | Herbicidal effect Amaranthus viridis [8] | Phytotoxicity Corn (corn [9]) | Phytotoxicity Corn (corn [10]) | Herbicidal effect Chenopodium album [11] | Herbicidal effect Amaranthus viridis [12] | Herbicidal effect Abutilon theophrast [13] |
| --- | --- | --- | --- | --- | --- | --- | --- | --- | --- | --- | --- | --- | --- |
| CCOC(=O)C(OCC)Oc1ccccc1Oc1cc(-c2c(Cl)n3n(c2=O)CCCC3)c(F)cc1Cl (centres unmarked) [Compound 3-18] | 5 (Herbicidal effect/phytotoxicity was 90% or greater) | 5 (Herbicidal effect/phytotoxicity was 90% or greater) | 5 (Herbicidal effect/phytotoxicity was 90% or greater) | 5 (Herbicidal effect/phytotoxicity was 90% or greater) | 5 (Herbicidal effect/phytotoxicity was 90% or greater) | 5 (Herbicidal effect/phytotoxicity was 90% or greater) | 5 (Herbicidal effect/phytotoxicity was 90% or greater) | 5 (Herbicidal effect/phytotoxicity was 90% or greater) | 0 (Herbicidal effect/phytotoxicity was 0% to 10%) | – | – | – | – |
| Cc1ccc(Oc2cc(-c3c(Cl)n4n(c3=O)CCCC4)c(F)cc2Cl)c(O)c1 [Compound 3-40] | – | – | – | – | – | – | 5 (Herbicidal effect/phytotoxicity was 90% or greater) | 5 (Herbicidal effect/phytotoxicity was 90% or greater) | 0 (Herbicidal effect/phytotoxicity was 0% to 10%) | – | – | – | – |
| COc1cc(-c2c(Cl)n3n(c2=O)CCOCC3)c(F)cc1F [Example 1-89] | 5 (Herbicidal effect/phytotoxicity was 90% or greater) | 5 (Herbicidal effect/phytotoxicity was 90% or greater) | 5 (Herbicidal effect/phytotoxicity was 90% or greater) | 5 (Herbicidal effect/phytotoxicity was 90% or greater) | 5 (Herbicidal effect/phytotoxicity was 90% or greater) | 5 (Herbicidal effect/phytotoxicity was 90% or greater) | 5 (Herbicidal effect/phytotoxicity was 90% or greater) | 5 (Herbicidal effect/phytotoxicity was 90% or greater) | 0 (Herbicidal effect/phytotoxicity was 0% to 10%) | – | – | – | – |
| C#CCOc1cc(-c2c(Cl)n3n(c2=O)CCCCC3)c(F)cc1Cl [Example 1-239] | – | – | – | – | – | – | 5 (Herbicidal effect/phytotoxicity was 90% or greater) | 5 (Herbicidal effect/phytotoxicity was 90% or greater) | 0 (Herbicidal effect/phytotoxicity was 0% to 10%) | 2 (Herbicidal effect/phytotoxicity was 30% to 50%) | 5 (Herbicidal effect/phytotoxicity was 90% or greater) | 5 (Herbicidal effect/phytotoxicity was 90% or greater) | 5 (Herbicidal effect/phytotoxicity was 90% or greater) |
| COc1cc(-c2c(Cl)n3n(c2=O)CCOCC3)c(Cl)cc1Cl [Example 1-296] | 5 (Herbicidal effect/phytotoxicity was 90% or greater) | 5 (Herbicidal effect/phytotoxicity was 90% or greater) | 5 (Herbicidal effect/phytotoxicity was 90% or greater) | 5 (Herbicidal effect/phytotoxicity was 90% or greater) | 5 (Herbicidal effect/phytotoxicity was 90% or greater) | 5 (Herbicidal effect/phytotoxicity was 90% or greater) | 5 (Herbicidal effect/phytotoxicity was 90% or greater) | 5 (Herbicidal effect/phytotoxicity was 90% or greater) | 0 (Herbicidal effect/phytotoxicity was 0% to 10%) | – | – | – | – |
| O=c1c(-c2cc(OC3CCCC3)c(Cl)cc2Cl)c(Cl)n2n1CCCC2 [Example 1-307] | 5 (Herbicidal effect/phytotoxicity was 90% or greater) | 5 (Herbicidal effect/phytotoxicity was 90% or greater) | 5 (Herbicidal effect/phytotoxicity was 90% or greater) | 5 (Herbicidal effect/phytotoxicity was 90% or greater) | 5 (Herbicidal effect/phytotoxicity was 90% or greater) | 5 (Herbicidal effect/phytotoxicity was 90% or greater) | – | – | – | 0 (Herbicidal effect/phytotoxicity was 0% to 10%) | 5 (Herbicidal effect/phytotoxicity was 90% or greater) | 5 (Herbicidal effect/phytotoxicity was 90% or greater) | 5 (Herbicidal effect/phytotoxicity was 90% or greater) |
| C#CCOc1cc(-c2c(F)n3n(c2=O)CCOCC3)c(Cl)cc1Cl [Example 1-364] | 5 (Herbicidal effect/phytotoxicity was 90% or greater) | 5 (Herbicidal effect/phytotoxicity was 90% or greater) | 5 (Herbicidal effect/phytotoxicity was 90% or greater) | 5 (Herbicidal effect/phytotoxicity was 90% or greater) | 5 (Herbicidal effect/phytotoxicity was 90% or greater) | 5 (Herbicidal effect/phytotoxicity was 90% or greater) | – | – | – | 1 (Herbicidal effect/phytotoxicity was 10% to 30%) | 5 (Herbicidal effect/phytotoxicity was 90% or greater) | 5 (Herbicidal effect/phytotoxicity was 90% or greater) | 5 (Herbicidal effect/phytotoxicity was 90% or greater) |
| C#CCOc1cc(-c2c(Cl)n3n(c2=O)CCCCC3)c(F)cc1F [Example 1-367] | 5 (Herbicidal effect/phytotoxicity was 90% or greater) | 5 (Herbicidal effect/phytotoxicity was 90% or greater) | 5 (Herbicidal effect/phytotoxicity was 90% or greater) | 5 (Herbicidal effect/phytotoxicity was 90% or greater) | 5 (Herbicidal effect/phytotoxicity was 90% or greater) | 5 (Herbicidal effect/phytotoxicity was 90% or greater) | 5 (Herbicidal effect/phytotoxicity was 90% or greater) | 5 (Herbicidal effect/phytotoxicity was 90% or greater) | 0 (Herbicidal effect/phytotoxicity was 0% to 10%) | – | – | – | – |
| C#CCOc1cc(-c2c(Cl)n3n(c2=O)CCCC3)c(F)cc1[N+](=O)[O-] [Example 1-418] | – | – | – | – | – | – | 5 (Herbicidal effect/phytotoxicity was 90% or greater) | 5 (Herbicidal effect/phytotoxicity was 90% or greater) | 0 (Herbicidal effect/phytotoxicity was 0% to 10%) | – | – | – | – |
| CS(=O)(=O)Nc1cc(-c2c(Cl)n3n(c2=O)CCCC3)c(F)cc1Cl [Example 5-35] | – | – | – | – | – | – | 5 (Herbicidal effect/phytotoxicity was 90% or greater) | 5 (Herbicidal effect/phytotoxicity was 90% or greater) | 0 (Herbicidal effect/phytotoxicity was 0% to 10%) | 0 (Herbicidal effect/phytotoxicity was 0% to 10%) | 5 (Herbicidal effect/phytotoxicity was 90% or greater) | 5 (Herbicidal effect/phytotoxicity was 90% or greater) | 5 (Herbicidal effect/phytotoxicity was 90% or greater) |
| O=c1c(-c2cc(NS(=O)(=O)CCl)c(Cl)cc2F)c(Cl)n2n1CCOCC2 [Example 5-49] | – | – | – | – | – | – | 5 (Herbicidal effect/phytotoxicity was 90% or greater) | 5 (Herbicidal effect/phytotoxicity was 90% or greater) | 0 (Herbicidal effect/phytotoxicity was 0% to 10%) | 1 (Herbicidal effect/phytotoxicity was 10% to 30%) | 5 (Herbicidal effect/phytotoxicity was 90% or greater) | 5 (Herbicidal effect/phytotoxicity was 90% or greater) | 5 (Herbicidal effect/phytotoxicity was 90% or greater) |
